Data taken from ChEMBL document CHEMBL1201862, “PubChem BioAssay data set” (2004).
The source made the active and inactive calls.

Legend:
[1] = viability of uninfected HEp-2 cells – cell-based, HTS, cytotoxicity control for RSV inhibitor project, dose response (AID 2410); assay type: functional; conditions: human respiratory syncytial virus
Leucine aminopeptidase = molecular target: T1, Leucine aminopeptidase (Plasmodium falciparum 3D7, UniProt Q8IL11); experiment: P. falciparum M17LAP inhibitors, primary screen, biochemical, fluorogenic H-Leu-NHMec substrate, 1536-well (AID 1619); assay type: functional
T1 sequence (Q8IL11 whole entry): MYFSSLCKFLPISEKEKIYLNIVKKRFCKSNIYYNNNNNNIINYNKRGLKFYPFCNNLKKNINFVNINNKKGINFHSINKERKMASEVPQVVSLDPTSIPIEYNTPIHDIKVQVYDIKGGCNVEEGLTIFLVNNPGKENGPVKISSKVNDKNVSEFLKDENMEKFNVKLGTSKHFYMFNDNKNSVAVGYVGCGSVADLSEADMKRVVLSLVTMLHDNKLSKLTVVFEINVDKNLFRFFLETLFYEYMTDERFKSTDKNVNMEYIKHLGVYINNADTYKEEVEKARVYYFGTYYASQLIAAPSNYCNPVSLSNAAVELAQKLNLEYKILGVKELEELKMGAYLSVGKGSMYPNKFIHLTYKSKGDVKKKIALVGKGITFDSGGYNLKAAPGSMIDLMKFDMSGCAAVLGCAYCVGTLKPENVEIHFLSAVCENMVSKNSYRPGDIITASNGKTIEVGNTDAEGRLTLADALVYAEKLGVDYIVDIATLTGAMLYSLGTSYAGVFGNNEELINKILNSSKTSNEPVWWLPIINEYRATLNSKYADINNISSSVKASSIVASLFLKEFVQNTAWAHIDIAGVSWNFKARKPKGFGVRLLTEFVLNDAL

[2] = molecular target: Peroxisome proliferator-activated receptor gamma/Nuclear receptor coactivator 3 (Homo sapiens, UniProt P37231); experiment: TR-FRET dose response biochemical High Throughput Screening assay for agonists of the steroid receptor coactivator 3 (SRC-3) recruitment by the peroxisome proliferator-activated receptor gamma (PPAR gamma): non-selective agonists. [Related pubchem assays: 1301 (Confirmation screen.), 1048 (Primary screen.)]; assay type: functional
Peroxisome proliferator-activated receptor gamma/Nuclear receptor coactivator 3, sequence (P37231 whole entry): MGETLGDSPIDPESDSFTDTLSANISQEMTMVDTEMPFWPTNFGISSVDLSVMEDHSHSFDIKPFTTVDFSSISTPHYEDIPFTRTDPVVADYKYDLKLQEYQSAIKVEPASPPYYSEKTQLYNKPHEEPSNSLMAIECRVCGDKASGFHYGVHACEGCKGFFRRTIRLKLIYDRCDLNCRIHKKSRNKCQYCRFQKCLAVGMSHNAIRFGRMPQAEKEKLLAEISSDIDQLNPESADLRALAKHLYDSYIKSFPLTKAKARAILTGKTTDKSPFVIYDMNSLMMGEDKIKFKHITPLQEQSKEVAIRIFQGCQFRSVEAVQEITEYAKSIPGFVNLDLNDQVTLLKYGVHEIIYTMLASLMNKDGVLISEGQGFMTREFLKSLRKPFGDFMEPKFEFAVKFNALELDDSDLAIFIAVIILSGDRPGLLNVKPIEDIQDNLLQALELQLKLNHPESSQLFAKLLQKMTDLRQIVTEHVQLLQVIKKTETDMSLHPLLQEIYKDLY
Peroxisome proliferator-activated receptor gamma/Nuclear receptor coactivator 3, sequence (Q9Y6Q9 whole entry, further chain): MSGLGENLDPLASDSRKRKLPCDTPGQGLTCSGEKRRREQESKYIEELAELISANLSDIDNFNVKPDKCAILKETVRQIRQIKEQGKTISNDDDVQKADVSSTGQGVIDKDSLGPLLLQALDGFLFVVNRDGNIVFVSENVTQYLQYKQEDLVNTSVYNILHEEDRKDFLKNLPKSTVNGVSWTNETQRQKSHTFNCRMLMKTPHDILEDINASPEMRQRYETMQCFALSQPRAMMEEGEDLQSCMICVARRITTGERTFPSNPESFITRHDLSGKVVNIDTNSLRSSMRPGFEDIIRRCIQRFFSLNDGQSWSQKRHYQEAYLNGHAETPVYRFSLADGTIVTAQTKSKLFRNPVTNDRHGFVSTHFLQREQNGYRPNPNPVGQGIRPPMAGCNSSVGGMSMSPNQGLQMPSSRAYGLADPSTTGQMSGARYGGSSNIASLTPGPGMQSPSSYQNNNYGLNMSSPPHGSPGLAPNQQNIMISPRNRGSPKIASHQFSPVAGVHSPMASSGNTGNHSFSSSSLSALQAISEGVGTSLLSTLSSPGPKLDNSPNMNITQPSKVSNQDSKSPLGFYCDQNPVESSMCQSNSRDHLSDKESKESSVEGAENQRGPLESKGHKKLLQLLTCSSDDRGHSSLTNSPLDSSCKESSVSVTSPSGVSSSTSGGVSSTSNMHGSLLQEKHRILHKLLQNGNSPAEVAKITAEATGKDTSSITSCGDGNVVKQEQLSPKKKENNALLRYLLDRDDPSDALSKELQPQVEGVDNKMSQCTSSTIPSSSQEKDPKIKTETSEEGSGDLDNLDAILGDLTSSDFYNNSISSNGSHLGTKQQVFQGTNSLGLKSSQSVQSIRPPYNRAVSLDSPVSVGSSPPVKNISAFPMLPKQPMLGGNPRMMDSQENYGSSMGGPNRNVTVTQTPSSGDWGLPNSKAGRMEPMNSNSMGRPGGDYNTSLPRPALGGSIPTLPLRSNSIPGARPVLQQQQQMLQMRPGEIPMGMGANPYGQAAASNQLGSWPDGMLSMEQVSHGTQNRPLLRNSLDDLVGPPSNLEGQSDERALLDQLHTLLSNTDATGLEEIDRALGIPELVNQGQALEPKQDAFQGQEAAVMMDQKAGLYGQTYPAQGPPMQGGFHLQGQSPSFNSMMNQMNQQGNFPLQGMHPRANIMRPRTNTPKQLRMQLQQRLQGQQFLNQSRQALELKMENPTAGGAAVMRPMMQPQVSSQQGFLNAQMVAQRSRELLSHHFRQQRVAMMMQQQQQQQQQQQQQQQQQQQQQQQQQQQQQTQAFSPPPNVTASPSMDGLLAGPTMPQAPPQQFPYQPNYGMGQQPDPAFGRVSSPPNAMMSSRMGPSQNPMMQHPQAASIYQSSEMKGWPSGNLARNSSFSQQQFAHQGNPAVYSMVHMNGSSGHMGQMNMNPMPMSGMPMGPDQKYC

[3] = molecular target: Peroxisome proliferator-activated receptor gamma/Nuclear receptor coactivator 1 (Homo sapiens, UniProt P37231); experiment: TR-FRET dose response biochemical High Throughput Screening assay for agonists of the steroid receptor coactivator 1 (SRC-1) recruitment by the peroxisome proliferator-activated receptor gamma (PPAR gamma): non-selective agonists. [Related pubchem assays (depositor defined):AID1300, AID1808, AID504735, AID631]; assay type: protein assay
Peroxisome proliferator-activated receptor gamma/Nuclear receptor coactivator 1, sequence (P37231 whole entry): as the sequence (P37231 whole entry) above
Peroxisome proliferator-activated receptor gamma/Nuclear receptor coactivator 1, sequence (Q15788 whole entry, further chain): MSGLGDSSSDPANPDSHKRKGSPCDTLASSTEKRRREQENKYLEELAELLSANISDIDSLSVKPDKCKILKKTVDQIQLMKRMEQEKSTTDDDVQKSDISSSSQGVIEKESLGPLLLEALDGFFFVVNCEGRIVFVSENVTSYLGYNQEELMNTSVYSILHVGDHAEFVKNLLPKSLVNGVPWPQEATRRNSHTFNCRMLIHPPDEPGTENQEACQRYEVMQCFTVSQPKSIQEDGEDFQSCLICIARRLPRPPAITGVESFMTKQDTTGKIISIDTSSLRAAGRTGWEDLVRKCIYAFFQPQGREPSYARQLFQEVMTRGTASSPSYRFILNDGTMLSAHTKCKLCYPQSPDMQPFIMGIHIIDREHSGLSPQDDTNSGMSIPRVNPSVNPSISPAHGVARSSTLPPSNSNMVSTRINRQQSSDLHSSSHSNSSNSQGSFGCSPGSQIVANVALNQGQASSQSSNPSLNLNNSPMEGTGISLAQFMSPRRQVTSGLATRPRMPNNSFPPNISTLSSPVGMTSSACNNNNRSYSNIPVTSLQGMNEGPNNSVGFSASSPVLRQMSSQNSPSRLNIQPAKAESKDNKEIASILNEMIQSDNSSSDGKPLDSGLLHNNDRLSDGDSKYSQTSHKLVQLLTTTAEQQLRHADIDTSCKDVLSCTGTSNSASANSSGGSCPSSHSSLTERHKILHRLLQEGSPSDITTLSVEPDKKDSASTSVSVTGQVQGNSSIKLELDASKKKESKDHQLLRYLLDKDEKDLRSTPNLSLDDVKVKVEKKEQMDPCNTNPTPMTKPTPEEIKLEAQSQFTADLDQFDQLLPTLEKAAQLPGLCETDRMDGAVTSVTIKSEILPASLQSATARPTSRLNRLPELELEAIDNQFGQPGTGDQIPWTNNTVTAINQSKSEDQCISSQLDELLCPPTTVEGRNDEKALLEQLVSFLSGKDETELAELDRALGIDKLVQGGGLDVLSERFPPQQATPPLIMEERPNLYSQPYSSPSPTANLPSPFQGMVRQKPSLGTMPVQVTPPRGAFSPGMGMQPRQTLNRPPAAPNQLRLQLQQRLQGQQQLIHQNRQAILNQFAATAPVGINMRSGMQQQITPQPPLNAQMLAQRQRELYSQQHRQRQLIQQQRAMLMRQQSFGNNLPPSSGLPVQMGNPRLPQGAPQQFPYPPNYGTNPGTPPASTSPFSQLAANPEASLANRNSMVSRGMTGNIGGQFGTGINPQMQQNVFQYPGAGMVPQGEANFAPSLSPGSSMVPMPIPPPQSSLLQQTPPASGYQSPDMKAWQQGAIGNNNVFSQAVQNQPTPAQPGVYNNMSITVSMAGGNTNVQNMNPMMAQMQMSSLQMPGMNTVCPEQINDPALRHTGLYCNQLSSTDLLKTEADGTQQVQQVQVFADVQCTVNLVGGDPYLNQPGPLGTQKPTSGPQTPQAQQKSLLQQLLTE

[4] = molecular target: Peroxisome proliferator-activated receptor gamma/Nuclear receptor coactivator 2 (Homo sapiens, UniProt P37231); experiment: TR-FRET dose response biochemical High Throughput Screening assay for agonists of the steroid receptor coactivator 2 (SRC-2) recruitment by the peroxisome proliferator-activated receptor gamma (PPAR gamma): non-selective agonists. [Related pubchem assays: 1297, 1032 ]; assay type: functional
[5] = molecular target: T2, Replicative DNA helicase DnaB (Mycobacterium tuberculosis, UniProt P9WMR3); experiment: DnaB intein splicing inhibitors, dose response, biochemical, cell-free fluorescence (AID 449749); assay type: functional
T2 sequence (P9WMR3 whole entry): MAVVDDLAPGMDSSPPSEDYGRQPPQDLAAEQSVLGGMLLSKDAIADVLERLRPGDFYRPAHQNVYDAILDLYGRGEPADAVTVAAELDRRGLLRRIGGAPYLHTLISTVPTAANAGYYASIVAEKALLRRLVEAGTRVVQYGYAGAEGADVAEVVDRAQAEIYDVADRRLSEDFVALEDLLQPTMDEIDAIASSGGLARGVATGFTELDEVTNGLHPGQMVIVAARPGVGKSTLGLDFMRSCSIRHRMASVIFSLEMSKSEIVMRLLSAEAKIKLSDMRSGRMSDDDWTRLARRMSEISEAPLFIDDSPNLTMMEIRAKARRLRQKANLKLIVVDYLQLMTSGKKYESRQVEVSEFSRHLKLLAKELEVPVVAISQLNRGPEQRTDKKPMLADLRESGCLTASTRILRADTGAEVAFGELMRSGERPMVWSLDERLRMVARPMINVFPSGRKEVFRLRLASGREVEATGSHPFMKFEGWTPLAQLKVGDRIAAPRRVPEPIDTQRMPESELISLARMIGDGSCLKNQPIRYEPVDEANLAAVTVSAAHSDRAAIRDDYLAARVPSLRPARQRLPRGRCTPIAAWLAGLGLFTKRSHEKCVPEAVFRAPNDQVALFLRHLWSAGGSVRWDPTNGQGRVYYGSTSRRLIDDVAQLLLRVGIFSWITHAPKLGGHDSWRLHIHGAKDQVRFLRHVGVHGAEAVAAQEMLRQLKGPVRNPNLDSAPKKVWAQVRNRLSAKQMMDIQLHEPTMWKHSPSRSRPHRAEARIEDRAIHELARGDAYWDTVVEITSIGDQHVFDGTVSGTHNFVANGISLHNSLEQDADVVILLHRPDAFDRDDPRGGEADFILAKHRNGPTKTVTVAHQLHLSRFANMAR

[6] = viability of HCT116 lacking mutant beta-catenin – cell-based, human colon tumor, dose response (AID 1045); assay type: functional;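 note: HCT116 colon tumor cells with beta catenin knocked out; cells exposed to compound for 60 hours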
cells = assay type: functional
[7] = THP-1 cell cytotoxicity, dose response, cytotoxicity control for non-replicating M. tuberculosis project (AID 489025); assay type: functional
Protein RecA = molecular target: T3, Protein RecA (Mycobacterium tuberculosis, UniProt P9WHJ3); experiment: Fluorescence Cell-Free Homogeneous Dose Retest to Identify Inhibitors of RecA-Intein Splicing Activity. [Related pubchem assays (depositor defined):AID2097, AID2223, AID489010, AID492950]; assay type: functional
T3 sequence (P9WHJ3 whole entry): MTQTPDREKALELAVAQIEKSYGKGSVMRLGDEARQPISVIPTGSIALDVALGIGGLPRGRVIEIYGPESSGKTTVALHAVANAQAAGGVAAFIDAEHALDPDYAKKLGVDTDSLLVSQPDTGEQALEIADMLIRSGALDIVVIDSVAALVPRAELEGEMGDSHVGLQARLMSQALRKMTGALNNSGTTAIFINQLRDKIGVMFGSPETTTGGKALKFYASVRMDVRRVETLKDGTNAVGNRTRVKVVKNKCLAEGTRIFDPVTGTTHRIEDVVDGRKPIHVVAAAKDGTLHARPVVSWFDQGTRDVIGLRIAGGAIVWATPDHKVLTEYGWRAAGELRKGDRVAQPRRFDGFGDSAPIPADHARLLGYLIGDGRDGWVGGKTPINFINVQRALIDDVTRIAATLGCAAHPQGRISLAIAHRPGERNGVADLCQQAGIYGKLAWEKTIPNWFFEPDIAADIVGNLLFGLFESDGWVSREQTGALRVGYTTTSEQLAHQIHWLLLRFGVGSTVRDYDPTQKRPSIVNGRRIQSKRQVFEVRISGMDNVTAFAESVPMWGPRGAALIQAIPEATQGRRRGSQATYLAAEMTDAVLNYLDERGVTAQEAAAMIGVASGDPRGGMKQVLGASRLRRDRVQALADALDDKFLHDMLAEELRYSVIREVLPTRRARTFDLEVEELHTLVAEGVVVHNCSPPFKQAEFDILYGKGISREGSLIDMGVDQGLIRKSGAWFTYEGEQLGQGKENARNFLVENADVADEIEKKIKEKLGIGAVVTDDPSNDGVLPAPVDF

[8] = viability of PTEN-deleted HCT116 cells – cell-based, HCT116 PTEN knockout, dose response (AID 1047); assay type: functional;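 note: HCT116 colon tumor cells with PTEN knocked out; cells exposed to compound for 60 hours before readout; potency for loss of cell viability measured by luminescence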
BJ [9] = experiment: cells; assay type: functional, cell-based; conditions: Homo sapiens
BJ [10] = experiment: BJ-TERT fibroblast viability loss – cell-based, RAS-independent, luminescence, dose response (AID 1933); assay type: functional; conditions: Homo sapiens
[11] = Luminescence Cell-Based Dose Retest to Confirm Inhibitors of Cancer Stem Cells. [Related pubchem assays (depositor defined):AID2717, AID2721]; assay type: functional; conditions: Homo sapiens
[12] = DRD fibroblast viability loss – cell-based, non-viral oncogenic, luminescence, dose response (AID 1934); assay type: functional; conditions: Homo sapiens
BJ [13] = experiment: BJ-TERT-LT-ST fibroblast viability loss – cell-based, RAS-independent, luminescence, dose response (AID 1935); assay type: functional; conditions: Homo sapiens;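 note: BJ fibroblasts immortalized with TERT plus LT and ST oncogenes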
Nonstructural protein 1 = Nonstructural protein 1 (Influenza A virus, UniProt Q194T2); assay type: functional, Influenza A virus (A/California/07/2009(H1N1))
Nonstructural protein 1, sequence (Q194T2 whole entry): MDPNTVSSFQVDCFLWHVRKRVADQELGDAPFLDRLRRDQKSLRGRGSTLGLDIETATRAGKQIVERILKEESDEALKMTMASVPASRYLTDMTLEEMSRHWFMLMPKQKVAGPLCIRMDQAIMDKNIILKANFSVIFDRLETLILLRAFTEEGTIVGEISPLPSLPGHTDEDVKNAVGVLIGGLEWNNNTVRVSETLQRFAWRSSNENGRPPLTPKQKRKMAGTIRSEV

[14] = molecular target: T4, High affinity choline transporter 1 (Homo sapiens, UniProt Q9GZV3); experiment: human choline transporter blockers, potency – cell-based, 5-point CRC, membrane potential dye, dose response (AID 504840); assay type: functional
T4 sequence (Q9GZV3 whole entry): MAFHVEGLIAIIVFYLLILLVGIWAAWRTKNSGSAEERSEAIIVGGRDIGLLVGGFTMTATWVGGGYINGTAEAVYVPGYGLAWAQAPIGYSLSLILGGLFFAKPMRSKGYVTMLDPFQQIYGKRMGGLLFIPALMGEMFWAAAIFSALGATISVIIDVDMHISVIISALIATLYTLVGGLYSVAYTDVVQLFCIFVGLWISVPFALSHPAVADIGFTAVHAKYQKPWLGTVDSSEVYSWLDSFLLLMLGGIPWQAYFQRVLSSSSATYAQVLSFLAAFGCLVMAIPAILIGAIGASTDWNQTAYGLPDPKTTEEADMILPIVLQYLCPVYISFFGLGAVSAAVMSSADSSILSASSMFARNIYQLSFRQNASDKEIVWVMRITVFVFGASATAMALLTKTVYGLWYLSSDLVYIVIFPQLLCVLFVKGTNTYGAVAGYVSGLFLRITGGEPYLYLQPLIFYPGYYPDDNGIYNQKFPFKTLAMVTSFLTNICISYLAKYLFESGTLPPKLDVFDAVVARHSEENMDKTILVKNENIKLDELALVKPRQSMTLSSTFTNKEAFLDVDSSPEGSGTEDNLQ

[15] = molecular target: T5, Polyadenylate-binding protein 1 (Homo sapiens, UniProt P11940); experiment: MLLE binding blockers, Cy5 peptide tracer – biochemical, fluorescence polarization, Cy5-PAM2 peptide, secondary, miRNA deadenylation inhibitor project, dose response (AID 602260); assay type: functional; conditions: read-out: IC50_Mean
T5 sequence (P11940 whole entry, the tested form may be a part): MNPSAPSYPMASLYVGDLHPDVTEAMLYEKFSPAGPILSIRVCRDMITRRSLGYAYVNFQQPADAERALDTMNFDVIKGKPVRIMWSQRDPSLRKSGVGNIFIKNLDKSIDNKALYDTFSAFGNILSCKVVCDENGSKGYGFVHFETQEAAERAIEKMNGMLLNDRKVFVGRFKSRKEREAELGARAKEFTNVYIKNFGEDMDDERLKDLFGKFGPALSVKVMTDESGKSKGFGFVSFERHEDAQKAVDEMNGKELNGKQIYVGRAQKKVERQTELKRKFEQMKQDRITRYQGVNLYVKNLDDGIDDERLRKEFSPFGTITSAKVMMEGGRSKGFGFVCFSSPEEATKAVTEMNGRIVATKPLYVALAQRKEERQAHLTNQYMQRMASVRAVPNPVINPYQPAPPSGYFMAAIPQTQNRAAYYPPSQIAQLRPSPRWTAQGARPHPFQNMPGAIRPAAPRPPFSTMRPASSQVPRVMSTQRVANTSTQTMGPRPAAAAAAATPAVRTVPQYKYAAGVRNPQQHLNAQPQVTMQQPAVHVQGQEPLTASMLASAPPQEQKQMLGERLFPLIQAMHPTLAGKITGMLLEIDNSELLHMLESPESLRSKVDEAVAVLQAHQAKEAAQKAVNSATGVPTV

[16] = molecular target: T5, Polyadenylate-binding protein 1; experiment: MLLE domain peptide-binding blockers, IC50 – biochemical, fluorescence polarization, FITC-PAM2 peptide, dose response (AID 602259); assay type: functional; conditions: read-out: IC50_Mean
[17] = molecular target: T6, Voltage-gated N-type calcium channel alpha-1B subunit/Amyloid beta A4 precursor protein-binding family A member 1 (Homo sapiens, UniProt Q00975+Q02410); assay type: protein assay
[18] = molecular target: T6, Voltage-gated N-type calcium channel alpha-1B subunit/Amyloid beta A4 precursor protein-binding family A member 1; assay type: protein assay; remark: listed apart in the source
H9c2 = experiment: cells; assay type: functional, cell-based; conditions: Rattus norvegicus, H9c2, Myocardium

## Clc1cc(Cl)cc(Nc2nc[nH]n2)c1
[1]
  CC50: 22.7 µM (active)
Leucine aminopeptidase
  IC50: 23.3 µM (active)

## CCn1c(=O)cc(SCC(=O)Nc2cccnc2)c2ccccc21
[2]
  EC50: > 79.4 µM (not active)
[3]
  EC50: > 79.4 µM (inactive)
[4]
  EC50: > 79.4 µM (not active)

## CC(=O)OCCNc1cc(SCc2ccco2)c2nonc2c1[N+](=O)[O-]
[5]
  AC50: 8.4 µM (active)
[6]
  EC50: 17.6 µM (active)
cells
  IC50: 5.86 µM (active)
[7]
  CC50: 30.1 µM (active)
Protein RecA
  EC50: 2.73 µM (active)
[8]
  EC50: 23.7 µM (active)

## CN(C)CCCNc1ccc(-c2cc(Nc3cccc(Cl)c3)ncn2)cn1
BJ [9]
  EC50: > 150 µM (not active)
BJ [10]
  EC50: 14.1 µM (active)
[11]
  AC50: 4.54 µM (active)
[12]
  EC50: 22.6 µM (active)
BJ [13]
  EC50: > 75 µM (not active)

## Cc1ccc(S(=O)(=O)Nc2nncs2)cc1
Leucine aminopeptidase
  IC50: 23.2 µM (active)

## C=CCN1C=C/C(=C\C=C(C#N)C#N)c2ccccc21
Nonstructural protein 1
  IC50: 14.2 µM (active)

## CCOC(=O)C1CSC(CC(=O)Nc2ccc(OCC)cc2)C(=O)N1 (centres undefined)
Leucine aminopeptidase
  IC50: 11.4 µM (active)

## O=C(O)CSc1nnc(CNc2cccc(C(F)(F)F)c2)n1Cc1ccco1
Leucine aminopeptidase
  IC50: 48.8 µM (active)

## Cc1ccc(NC(S)=Nc2ccc3nc(-c4ccccn4)c(-c4ccccn4)nc3c2)cc1C
[14]
  IC50: 13.2 µM (active)

## CCCCNC(=O)CSc1cc(=O)n(C)c2ccccc12
[2]
  EC50: > 79.4 µM (not active)
[3]
  EC50: > 79.4 µM (inactive)
[4]
  EC50: > 79.4 µM (not active)

## Cc1sc(NC(=S)Nc2ccc(F)cc2)c(C(N)=O)c1C
[2]
  EC50: > 79.4 µM (not active)
[15]
  IC50: > 66 µM (inactive)
[3]
  EC50: 9.36 µM (active)
Leucine aminopeptidase
  IC50: 53.1 µM (active)
[4]
  EC50: 9.42 µM (active)
[16]
  IC50: > 66 µM (inactive)

## O=C(COC(=O)CNC(=O)c1ccc(-c2ccccc2)cc1)NCc1ccco1
[17]
  IC50: 49.5 µM (active)
[18]
  IC50: 5.35 µM (active)

## O=C(Nc1ccc(F)cc1)C1=CC(=O)N2CCN=C2S1
[17]
  IC50: > 50 µM (inactive)
[18]
  IC50: 10.7 µM (active)

## CCN(C(=O)CN1C(=O)S/C(=C\C=C\c2ccccc2)C1=O)C1CCS(=O)(=O)C1 (centres undefined)
[17]
  IC50: > 50 µM (inactive)
[18]
  IC50: > 56.8 µM (not active)

## Cc1cc(=O)oc2cc(NC(=O)c3cccc(Br)c3)ccc12
[17]
  IC50: > 50 µM (inactive)
[18]
  IC50: 5.32 µM (active)

## Cc1ccc(S(=O)(=O)/N=C2\C(=O)c3ccccc3C(O)=C2N2CCN(c3ccccc3F)CC2)cc1
Nonstructural protein 1
  IC50: 79.2 µM (active)

## CCCn1c2ccccc2c2cnn(CC(=O)OC)c(=O)c21
[14]
  IC50: 15.8 µM (active)

## COc1ccccc1OCC(=O)N/N=C/c1cccc2cccnc12
H9c2
  IC50: 10.9 µM (active)
Nonstructural protein 1
  IC50: 13.5 µM (active)

## Oc1ccc(/C=N/NC(=S)Nc2cccnc2)cc1O
Leucine aminopeptidase
  IC50: 49.6 µM (active)

## Fc1ccccc1CCNc1c2c(nc3ncnn13)CCCC2
[14]
  IC50: 13.8 µM (active)
